Results published in publication PMC9489682, “Synthesis and comparative evaluation of ^177Lu-labeled PEG and non-PEG variant peptides as HER2-targeting probes” (Scientific Reports, 2022).
Where two headings read alike, the source gives them in different places. Residues, ends and D or L forms follow the SMILES beside them. *: point of attachment. DOTA = O=C(O)CN1CCN(CC(=O)O)CCN(CC(=O)*)CCN(CC(=O)O)CC1; PEG5 = NCCOCCOCCOCCOCCOCCC(=O)O

Key:
[1] = Water solubility (remarks); format: physicochemical; details: authors' remark on the non-pegylated peptide
[2] = Biodistribution in SKBR3 tumor bearing SCID mice; format: in vivo; details: female, mouse, iv, 0.5 ug, total radioactivity, mean ± SD; for tissue to tissue ratio at 3 h: 3 h p.i.; for tissue to tissue ratio at 3 h / tissue to tissue ratio at 24 h / tissue to tissue ratio at 48 h: i.v. tail vein, 0.5 μg, 3.7 MBq; for tissue to tissue ratio at 24 h: 24 h p.i.; for tissue to tissue ratio at 48 h: 48 h p.i.
Experimental: Biodistribution studies of peptide tracers, [^177Lu]DOTA-A9 and [^177Lu]DOTA-PEG4-A9 were carried out in female SCID mice bearing human breast carcinoma, SKBR3 tumor xenografts. Tumor bearing mice (n = 3) were intravenously injected with peptide tracers (0.5 μg, 150 μL, 3.7 MBq) into the tail vein. Animals were sacrificed and dissected at 3 h, 24 h and 48 h post injection (p.i.). The radioactivity associated with each tissue was counted in a NaI (Tl) flat geometry detector and expressed as percentage injected dose per gram of tissue [% ID/g, mean ± standard deviation, n = 3/radiotracer].
Statistical analysis using the […] two-tailed Student’s t-test was performed to compare uptake values in tumor and major organs between [^177Lu]DOTA-A9 and [^177Lu]DOTA-PEG4-A9 animal groups; values of p < 0.05 were considered statistically significant.

[3] = Human serum stability; format: in vitro ADME; details: human serum 500 μL, pH 7.4, 37 °C, 6 h, 25 µL (3.7 MBq) radiopeptide, acetonitrile precipitation, RP-HPLC radiochromatogram
Experimental: For serum stability studies blood was allowed to clot (1 h) followed by centrifugation (2300×g, 10 min). Measurements were performed by incubation of radiopeptides (25 µL, 3.7 MBq) with human serum (500 μL, pH 7.4) at 37 °C. After 6 h incubation acetonitrile (500 μL) was added to the sample for protein precipitation. Subsequently the sample was centrifuged, supernatant was collected and radiochemical purity was analyzed by RP-HPLC.

[4] = biological target: T1, HER2 (Homo sapiens, UniProt P04626); assay: Saturation radioligand binding assay in SKBR3 cells; details: HER2 over expressing SKBR3 cells, 1 × 10^6 cells/well, 4–200 nM radiopeptide, 37 °C, 60 min, non-specific binding with unlabeled DOTA-A9, nonlinear regression, read-out: Binding affinity Kd
T1 construct: endogenous in cells; host or cells: SKBR3 human breast carcinoma cells
Experimental: The binding affinity of [^177Lu]DOTA-A9 and [^177Lu]DOTA-PEG4-A9 was determined by the saturation radioligand binding assay in HER2 over expressing SKBR3 cells. 1 × 10^6 cells/well were seeded in cell culture plates and incubated at 37 °C. Cells were treated with series of increasing concentration of the radiolabeled peptide (4–200 nM) and incubated at 37 °C for 60 min. For obtaining non-specific binding, cells were co-incubated with radiolabeled formulations along with unlabeled DOTA-A9 peptide. On completion of incubation, cells were washed with the ice-cold phosphate buffer saline (PBS). Cells with bound radioactivity were harvested with 1 N NaOH (1 mL) solution (at 37 °C for 3 min) and counted in a gamma counter. Kd value was calculated by the nonlinear regression algorithm (GraphPad Prism version 7.0). The Bmax value (nM) was converted to the number of HER2 receptors per cell.

[5] = tested on: MDA-MB-435 tumors; details: in vivo; cited from earlier work
Experimental: Besides A9 peptide other HER2-targeting peptides have been explored and investigated. […] However, the tumor uptake reduced to 0.10 ± 0.02% ID/g at 24 h p.i. which is much lower than the values of presently studied radiopeptides. […] Tumor-to muscle ra ...

[6] = tested on: U-87 MG tumors; details: in vivo; cited from earlier work
Experimental: Several Tc-99m-labeled peptides targeting HER2 receptors have also been studied. The high uptake of [^99mTc]HYNIC-(Ser)3-LTVPWY in U-87 MG tumors (2.08 ± 0.07% ID/g) at 1 h p.i. dropped to 0.04 ± 0.03% ID/g at 4 h p.i. […] Tumor-to-blood, tumor-to-muscle and tumor-to-kidney ratios reported were much lower for [^99mTc]CGGG-LTVSPWY and [^99mTc]CSSS-LTVSPWY compared to the current radiopeptides.

[7] = tumor / blood, n = 3, read-out: Tumor-to-blood ratio
[8] = tumor / muscle, n = 3, read-out: Tumor-to-muscle ratio

T1 sequence (P04626 23-1255): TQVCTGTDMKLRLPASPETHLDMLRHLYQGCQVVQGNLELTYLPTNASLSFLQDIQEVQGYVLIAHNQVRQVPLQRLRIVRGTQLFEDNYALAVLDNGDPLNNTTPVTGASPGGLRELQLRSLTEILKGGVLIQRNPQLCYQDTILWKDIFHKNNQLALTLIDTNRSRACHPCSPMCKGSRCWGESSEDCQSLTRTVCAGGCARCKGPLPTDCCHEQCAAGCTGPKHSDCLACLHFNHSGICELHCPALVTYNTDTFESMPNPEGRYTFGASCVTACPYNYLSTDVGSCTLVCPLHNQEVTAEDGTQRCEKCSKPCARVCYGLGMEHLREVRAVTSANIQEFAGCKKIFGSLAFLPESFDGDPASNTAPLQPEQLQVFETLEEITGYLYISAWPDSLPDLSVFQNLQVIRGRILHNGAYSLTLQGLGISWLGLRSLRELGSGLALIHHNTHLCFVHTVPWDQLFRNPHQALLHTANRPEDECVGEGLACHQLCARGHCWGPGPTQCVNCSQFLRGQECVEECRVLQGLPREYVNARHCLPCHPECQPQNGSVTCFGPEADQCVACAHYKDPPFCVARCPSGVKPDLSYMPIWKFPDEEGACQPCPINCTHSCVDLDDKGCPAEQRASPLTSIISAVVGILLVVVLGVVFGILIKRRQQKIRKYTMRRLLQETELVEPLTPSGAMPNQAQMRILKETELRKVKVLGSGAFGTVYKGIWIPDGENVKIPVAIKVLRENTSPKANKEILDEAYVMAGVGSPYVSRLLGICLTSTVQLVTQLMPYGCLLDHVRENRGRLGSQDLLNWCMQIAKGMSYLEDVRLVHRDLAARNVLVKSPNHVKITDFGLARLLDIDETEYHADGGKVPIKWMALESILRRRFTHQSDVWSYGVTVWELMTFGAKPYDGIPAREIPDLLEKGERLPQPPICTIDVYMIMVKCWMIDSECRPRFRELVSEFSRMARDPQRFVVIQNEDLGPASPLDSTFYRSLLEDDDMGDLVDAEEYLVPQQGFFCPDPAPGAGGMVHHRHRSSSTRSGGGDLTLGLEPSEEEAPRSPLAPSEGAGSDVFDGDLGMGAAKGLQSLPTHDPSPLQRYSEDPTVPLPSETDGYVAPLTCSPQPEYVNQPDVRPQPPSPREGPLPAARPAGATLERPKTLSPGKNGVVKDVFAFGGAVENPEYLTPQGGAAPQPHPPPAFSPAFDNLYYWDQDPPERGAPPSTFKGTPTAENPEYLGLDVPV

Row | Molecule | intact radiopeptide after 6 h in human serum [%] | tissue to tissue ratio at 3 h [2, 7] | tissue to tissue ratio at 24 h [2, 7] | tissue to tissue ratio at 3 h [2, 8] | tissue to tissue ratio at 24 h [2, 8] | tissue to tissue ratio at 48 h [2, 8] | Degradation on incubation with human serum (radio-HPLC) [3] | Kd [4] [nM] | further results
1 | CC(C)[C@H](NC(=O)[C@H](C)NC(=O)[C@@H](NC(=O)[C@H](CC(N)=O)NC(=O)[C@@H](NC(=O)[C@H](CC(=O)O)NC(=O)[C@H](CCC(N)=O)NC(=O)CN1CCN(CC(=O)O)CCN(CC(=O)O)CCN(CC(=O)O)CC1)C(C)C)[C@@H](C)O)C(=O)N[C@@H](C)C(=O)N[C@@H](Cc1c[nH]c2ccccc12)C(N)=O ({DOTA}-QDVNTAVAW-NH2) | > 95 |  |  |  |  |  |  |  | 
2 | CC(C)[C@H](NC(=O)[C@H](C)NC(=O)[C@@H](NC(=O)[C@H](CC(N)=O)NC(=O)[C@@H](NC(=O)[C@H](CC(=O)O)NC(=O)[C@H](CCC(N)=O)NC(=O)CN1CCN(CC(=O)O)CCN(CC(=O)O)CCN(CC(=O)O)CC1)C(C)C)[C@@H](C)O)C(=O)N[C@@H](C)C(=O)N[C@@H](Cc1c[nH]c2ccccc12)C(N)=O [DOTA-A9] ({DOTA}-QDVNTAVAW-NH2) |  |  |  |  |  |  |  |  | Solubility [1]: no solubility issues
3 | CC(C)[C@H](NC(=O)[C@H](C)NC(=O)[C@@H](NC(=O)[C@H](CC(N)=O)NC(=O)[C@@H](NC(=O)[C@H](CC(=O)O)NC(=O)[C@H](CCC(N)=O)NC(=O)CN1CCN(CC(=O)O)CCN(CC(=O)O)CCN(CC(=O)O)CC1)C(C)C)[C@@H](C)O)C(=O)N[C@@H](C)C(=O)N[C@@H](Cc1c[nH]c2ccccc12)C(N)=O [[^177Lu]DOTA-A9, metal not drawn] ({DOTA}-QDVNTAVAW-NH2) |  | 3.4 ± 0.49 | 7.42 ± 1.11 | 8.42 ± 0.04 | 8.09 ± 2.21 | 10 ± 1.57 | no degradation | 48.4 ± 1.37 | 
4 | CC(C)[C@H](NC(=O)[C@H](C)NC(=O)[C@@H](NC(=O)[C@H](CC(N)=O)NC(=O)[C@@H](NC(=O)[C@H](CC(=O)O)NC(=O)[C@H](CCC(N)=O)NC(=O)CCOCCOCCOCCOCCOCCNC(=O)CN1CCN(CC(=O)O)CCN(CC(=O)O)CCN(CC(=O)O)CC1)C(C)C)[C@@H](C)O)C(=O)N[C@@H](C)C(=O)N[C@@H](Cc1c[nH]c2ccccc12)C(N)=O [[^177Lu]DOTA-PEG4-A9, metal not drawn] ({DOTA-PEG5}-QDVNTAVAW-NH2) | > 95 | 3.85 ± 0.02 | 8.87 ± 1.51 | 15.7 ± 2.06 | 13.3 ± 0.03 | 30 ± 2.83 | no change in radiochromatogram | 55.7 ± 12.3 | tissue uptake at 3 h ([2]; SKBR3 tumor, maximum observed at 3 h p.i., n = 3): 2.04 ± 0.22 %ID/g; tissue to tissue ratio at 48 h [2, 7]: 15 ± 1.42
5 | DOTA(GSG)-KCCYSL [[^111In]DOTA(GSG)-KCCYSL, In-111 labeled HER2-targeting KCCYSL peptide] |  |  |  |  |  |  |  |  | Maximum tumor uptake [5]: 2.12 ± 0.32 % ID/g; Tumor-to-blood ratio [5]: 10:1; Tumor-to-muscle ratio [5]: 0.5:1
6 | HYNIC-(Ser)3-LTVPWY [[^99mTc]HYNIC-(Ser)3-LTVPWY, Tc-99m-labeled peptide targeting HER2 receptors] |  |  |  |  |  |  |  |  | Tumor-to-blood ratio [6]: 3.39; Tumor-to-kidney ratio [6]: 0.24; Tumor-to-muscle ratio [6]: 3.98
